The values that follow are results of earlier work, collected in publication PMC9516332 (Frontiers in Oncology, 2022).

Like-named read-outs stand apart in the source and are kept apart here.

What all share (settings): cited from earlier work
The target in series [1] is panel of 255 wild-type kinases (Homo sapiens, UniProt Q15759).
Series [2] addresses panel of 255 wild-type kinases (Homo sapiens, UniProt Q02763).
Series [3] addresses panel of 255 wild-type kinases (Homo sapiens, UniProt P35916).
The target in series [4] is T1, panel of 255 wild-type kinases (Homo sapiens, UniProt P29322).
T1 sequence (P29322 28-1005): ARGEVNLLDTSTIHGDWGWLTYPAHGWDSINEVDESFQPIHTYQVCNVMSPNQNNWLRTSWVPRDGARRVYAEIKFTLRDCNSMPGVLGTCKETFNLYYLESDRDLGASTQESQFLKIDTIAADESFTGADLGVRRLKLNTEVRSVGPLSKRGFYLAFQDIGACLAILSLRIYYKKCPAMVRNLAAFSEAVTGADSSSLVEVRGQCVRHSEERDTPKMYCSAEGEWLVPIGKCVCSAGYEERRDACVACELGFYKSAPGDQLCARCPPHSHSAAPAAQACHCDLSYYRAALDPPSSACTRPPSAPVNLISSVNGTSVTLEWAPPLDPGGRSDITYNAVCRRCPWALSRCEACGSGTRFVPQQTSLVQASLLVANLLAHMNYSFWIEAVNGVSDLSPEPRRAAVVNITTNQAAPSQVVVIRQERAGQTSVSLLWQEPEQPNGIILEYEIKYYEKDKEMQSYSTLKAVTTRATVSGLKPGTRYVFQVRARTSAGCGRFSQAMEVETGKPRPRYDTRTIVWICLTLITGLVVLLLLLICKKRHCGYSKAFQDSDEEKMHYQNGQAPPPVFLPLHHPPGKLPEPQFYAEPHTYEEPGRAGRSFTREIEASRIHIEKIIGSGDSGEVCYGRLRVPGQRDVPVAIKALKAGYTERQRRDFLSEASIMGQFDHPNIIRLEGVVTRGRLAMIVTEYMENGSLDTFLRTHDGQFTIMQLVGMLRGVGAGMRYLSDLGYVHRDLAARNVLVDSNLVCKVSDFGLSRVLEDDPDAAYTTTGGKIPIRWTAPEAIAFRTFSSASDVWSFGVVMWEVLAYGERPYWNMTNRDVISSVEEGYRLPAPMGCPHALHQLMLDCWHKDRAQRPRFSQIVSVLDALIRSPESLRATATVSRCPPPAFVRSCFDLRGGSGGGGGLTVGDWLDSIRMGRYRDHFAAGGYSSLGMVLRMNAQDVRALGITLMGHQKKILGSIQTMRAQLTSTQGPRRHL

Series [5] has as its target T2, panel of 255 wild-type kinases (Homo sapiens, UniProt Q14164).
T2 sequence (Q14164 1-716): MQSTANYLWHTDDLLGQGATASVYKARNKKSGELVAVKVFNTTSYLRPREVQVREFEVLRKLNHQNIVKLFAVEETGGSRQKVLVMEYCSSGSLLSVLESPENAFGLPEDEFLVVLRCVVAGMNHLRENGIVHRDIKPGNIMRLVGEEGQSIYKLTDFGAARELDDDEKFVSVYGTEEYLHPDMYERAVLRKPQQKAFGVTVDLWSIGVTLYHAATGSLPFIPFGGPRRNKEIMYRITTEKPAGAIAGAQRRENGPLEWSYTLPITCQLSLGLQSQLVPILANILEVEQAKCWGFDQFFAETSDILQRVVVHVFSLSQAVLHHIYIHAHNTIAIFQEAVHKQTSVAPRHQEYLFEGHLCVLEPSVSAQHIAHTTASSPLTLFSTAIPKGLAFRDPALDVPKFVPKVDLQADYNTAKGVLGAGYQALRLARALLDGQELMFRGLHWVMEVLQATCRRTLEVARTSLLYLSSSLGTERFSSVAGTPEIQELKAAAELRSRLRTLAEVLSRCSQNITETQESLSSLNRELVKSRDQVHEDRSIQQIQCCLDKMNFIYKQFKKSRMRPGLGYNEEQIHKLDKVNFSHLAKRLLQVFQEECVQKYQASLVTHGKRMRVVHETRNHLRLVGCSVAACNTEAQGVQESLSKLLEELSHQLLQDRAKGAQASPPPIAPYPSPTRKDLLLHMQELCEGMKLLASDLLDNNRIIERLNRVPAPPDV

The target in series [6] is panel of 255 wild-type kinases (Homo sapiens, UniProt P06239).
Series [7] concerns the target panel of 255 wild-type kinases (Homo sapiens, UniProt Q07912).
In series [8] the target is T3, panel of 255 wild-type kinases (Homo sapiens, UniProt Q96BR1).
T3 sequence (Q96BR1 1-496): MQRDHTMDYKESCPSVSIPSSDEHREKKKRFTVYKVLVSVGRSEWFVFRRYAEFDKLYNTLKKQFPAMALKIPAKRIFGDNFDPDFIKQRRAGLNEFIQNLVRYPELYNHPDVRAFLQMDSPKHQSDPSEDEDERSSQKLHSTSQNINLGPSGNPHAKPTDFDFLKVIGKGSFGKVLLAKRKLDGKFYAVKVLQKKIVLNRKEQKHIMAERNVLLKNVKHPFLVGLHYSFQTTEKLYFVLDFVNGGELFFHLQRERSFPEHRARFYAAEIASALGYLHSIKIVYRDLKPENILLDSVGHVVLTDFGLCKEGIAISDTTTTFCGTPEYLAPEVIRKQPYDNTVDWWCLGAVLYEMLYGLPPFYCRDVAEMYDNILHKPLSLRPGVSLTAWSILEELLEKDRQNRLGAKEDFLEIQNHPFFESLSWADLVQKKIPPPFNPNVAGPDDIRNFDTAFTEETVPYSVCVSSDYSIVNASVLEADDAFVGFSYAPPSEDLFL

Setting [9] is: p38β, 1 µmol/L single concentration, ref DOI: 10.1158/1535-7163.MCT-18-0877.
The mark [10] stands for this setting: kinase TIE2, 1 µmol/L single concentration, ref DOI: 10.1158/1535-7163.MCT-18-0877.
The mark [11] stands for this setting: kinase FLT4, 1 µmol/L single concentration, ref DOI: 10.1158/1535-7163.MCT-18-0877.
Setting [12] is: kinase EPHA8, 1 µmol/L single concentration, ref DOI: 10.1158/1535-7163.MCT-18-0877.
[13] abbreviates: kinase IKKε, 1 µmol/L single concentration, ref DOI: 10.1158/1535-7163.MCT-18-0877.
[14] abbreviates: kinase LCK, 1 µmol/L single concentration, ref DOI: 10.1158/1535-7163.MCT-18-0877.
The mark [15] stands for this setting: ACK kinase assay, 1 µmol/L single concentration, ref DOI: 10.1158/1535-7163.MCT-18-0877.
Where [16] appears, read: kinase SGK3, 1 µmol/L single concentration, ref DOI: 10.1158/1535-7163.MCT-18-0877.

For the molecule `CC#CC(=O)N1CCC[C@H]1c1nc(-c2ccc(C(=O)Nc3ccccn3)cc2)c2c(N)nccn12` [acalabrutinib], in series [1] (setting [9]), the “%-inhibition, p38β” value was -3%. In addition, the “%-inhibition at 1 µmol/L, TIE2” value in series [2] (setting [10]) is recorded as -5.36%. In addition, in series [3] (setting [11]), the “%-inhibition at 1 µmol/L, FLT4” value is 1.41%. Besides, in series [4] (setting [12]), the “%-inhibition at 1 µmol/L, EPHA8” value is 6.51%. Besides, the “%-inhibition at 1 µmol/L, IKKε” value in series [5] (setting [13]) is 1.46%. In addition, the “%-inhibition at 1 µmol/L, LCK” value in series [6] (setting [14]) is 7%. For the same molecule, in series [7] (setting [15]), the “%-inhibition ACK” value is reported as 14%. In series [8] (setting [16]), the “%-inhibition at 1 µmol/L, SGK3” value is given as -12%.

For the molecule `CCc1cc2c(cc1N1CCC(N3CCOCC3)CC1)C(C)(C)c1[nH]c3cc(C#N)ccc3c1C2=O` [alectinib], the “%-inhibition, p38β” value in series [1] (setting [9]) was 0.144%. Moreover, the “%-inhibition at 1 µmol/L, TIE2” value in series [2] (setting [10]) is listed as 2%. Besides, the “%-inhibition at 1 µmol/L, FLT4” value in series [3] (setting [11]) is given as 39%. The “%-inhibition at 1 µmol/L, EPHA8” value in series [4] (setting [12]) is given as 12%. Further, the “%-inhibition at 1 µmol/L, IKKε” value in series [5] (setting [13]) is listed as 1.59%. Further, the “%-inhibition at 1 µmol/L, LCK” value in series [6] (setting [14]) is reported as 20%. In addition, the “%-inhibition ACK” value in series [7] (setting [15]) was 42%. Moreover, the “%-inhibition at 1 µmol/L, SGK3” value in series [8] (setting [16]) is listed as 1.51%.

Regarding `COc1cc(N2CCC(N3CCN(C)CC3)CC2)ccc1Nc1ncc(Cl)c(Nc2ccccc2P(C)(C)=O)n1` [brigatinib], the “%-inhibition, p38β” value in series [1] was 3.38%. In addition, the “%-inhibition at 1 µmol/L, TIE2” value in series [2] is 75%. Besides, in series [3], the “%-inhibition at 1 µmol/L, FLT4” value is 99%. Besides, in series [4], the “%-inhibition at 1 µmol/L, EPHA8” value is 6.55%. Moreover, the “%-inhibition at 1 µmol/L, IKKε” value in series [5] is on record as 24%. Besides, the “%-inhibition at 1 µmol/L, LCK” value in series [6] is 77%. Moreover, the “%-inhibition ACK” value in series [7] is recorded as 104%. For the same molecule, in series [8], the “%-inhibition at 1 µmol/L, SGK3” value was -2.26%.
